Our source for the EC50 and IC50 values is US20250034136A1 (Nimbus Wadjet, Inc., priority 2023, published 2025).

Some results are limits rather than exact numbers.

In assay [1] the test system is p21 induction in HCT116 cells. In words: p21 induction in HCT116 cells. In kind it is cell-based. The note with it: Homo sapiens, HCT-116, 24 h, HCT116 cells, 24 h compound incubation; read-out: P21_EC50. The method, then:
The colon carcinoma cell line HCT116 was obtained from ATCC and cultured in growth medium consisting of Mccoy's 5A Medium (Gibco 16600108) supplemented with 10% FBS (Transgene FS201-02) and 100 units/mL penicillin-streptomycin (Gibco 15140122) and maintained at 37° C. under 5% CO2. On the day of seeding, 2,000 cells in 30 μL of culture media were plated per well to Poly-D-Lysine 384 Well Black Clear Plates (Biocoat 356663) and incubated overnight at 37° C. under 5% CO2. The following day, compounds were serially diluted in DMSO for a total of 11 test concentrations. […] Next, 150 nL of diluted compound was added in duplicate to the assay plate, using an Echo 655 (Labcyte). The plate was centrifuged at 500 RPM for 1 min and then incubated at 37° C. under 5% CO2 for 24 h. After 24 h, medium was removed, and cells were fixed by adding 40 μL of 4% paraformaldehyde solution to each well and incubated for 20 min at room temperature. The plate was then washed 4 times with 100 μL per well of wash buffer (PBS with 0.1% Tween-20) using a microplate washer. Next, 30 μL of ice-cold methanol was added to each well and the plate was incubated at −20° C. for 10 min. The plate was washed 4 times with 100 μL per well of wash buffer by a microplate washer, then 30 μL per well of blocking buffer (Intercept PBS blocking buffer (LI-COR 927-70001) with 0.05% Tween-20) was added and the plate was incubated at room temperature with shaking for 2 h. Next, to each test well, 20 μL of primary antibody solution (p21 Waf1/CIP (12D1) RabbitmAb (Cell Signaling Technologies 2947) diluted 1:1000 and GAPDH (D4C6R) Mouse mAb (Cell Signaling Technologies 97166) diluted 1:2000 in blocking buffer) was added and the plate was placed at 4° C., overnight. The following day, the plate was washed 5 times with 100 μL per well of wash buffer using a microplate washer for 5 min. 20 μL per well of secondary antibody (IRDye 680CW Goat anti-Mouse IgG (H+L) (LI-COR 926-68070) diluted 1: 2000 in Blocking Buffer and IRDye 800CW Goat anti-Rabbit IgG (H+L) (LI-COR 926-32211) diluted 1: 2000 in Blocking Buffer) was then added and the plate was stored for 2 h in the dark at room temperature with shaking. The plate was then washed 4 times with 100 μL per well of wash buffer again using a microplate washer. Finally, the p21 signal and the GAPDH signal were quantified using a LI-COR Odyssey CLx Imager machine reading at 800 nm and 700 nm, respectively. Each plate contained DMSO control (low control) and an internal reference WRN inhibitor (high control) respectively. […] EC50 values for each compound were generated after non-linear regression curve fitting using commercially available software.

In assay [2] the target is WRN (BV08), human Werner helicase (Uniprot Q14191, amino acids 517-1235 with L1074F point mutation) (Homo sapiens (Human), UniProt Q14191, L1074F). In words: WRN (BV08) ADP-Glo assay. In kind it is biochemical. The note with it: class symbols A-E, read-out: ADP-Glo_hWRN_IC50. On the procedure: Bovine skin gelatin (BSG), dimethyl sulfoxide (DMSO), Pluronic F-127 and tris(2-carboxyethyl)phosphine hydrochloride solution (TCEP) were purchased from Sigma-Aldrich (St. Louis, MO) at the highest level of purity possible. […] DNA strands were annealed by heating to 95° C. for 5 minutes followed by slow cooling to room temperature. Compounds in 100% DMSO (0.1 μl) were spotted into a 384-well white polystyrene Optiplate-384 (Perkin Elmer; Waltham, MA) assay plate using a LabCyte Echo 550 (Agilent; Santa Clara, CA). DMSO (0.1 μl) was added to columns 12, rows A-H and column 24, rows I-P for the maximum signal control. […] Compounds/DMSO were preincubated for 15 minutes at 25° C. with 5 μl 2×WRN (BV08), prepared as described below, in assay buffer containing 20 mM Bicine (pH=7.5), 1 mM MgCl2, 10 mM KCl, 0.1% Pluronic F-127, 0.005% BSG, 1 mM TCEP. The reaction was initiated by the addition of 5 μl 2× substrate mixture in assay buffer and incubated for 60 minutes at 25° C. The final concentrations of the assay components were 0.15 nM WRN, 5 μM ATP, and 0.1 nM DNA duplex. The final DMSO concentration was 1% and the reference compound concentration (NSC-617145) used for the minimal signal control was 20 μM. The reaction was stopped by the addition of the ADP-Glo Kit components (Promega; Madison, WI) as directed and the relative luminescence units (RLU) were read on an Envision 2104 (Perkin Elmer; Waltham, MA). % inhibition calculation:
[formula] • Where RLU=relative luminescence units, sample=signal in sample well, and MIN and MAX are the respective minimum and maximum signal controls.
[formula] • Where top and bottom are normally allowed to float but may be fixed at 100 or 0 respectively in a 3-parameter fit. Y is the % inhibition and X is the compound concentration.
Molecular Biology and virus production. […] The baculovirus from the expression plasmid WRN—BV08 was generated from transfection and amplification following the manufacturer's instructions.
Sf9 cells grown in SF900II media were infected with 1:200 WRN—BV08 P2 virus and incubated for protein expression for 72 h at 27° C. The WRN protein was purified using the following protocol. The cell pellets were thawed and resuspended in buffer A (50 mM Tris, pH 7.5, 500 mM NaCl, 1 mM TCEP, 10% Glycerol) supplemented with 0.5% CHAPS, 1 mM PMSF, 1 μg/ml Leupeptin, 1 μg/ml Pepstatin, and the Pierce Universal Nuclease and cocktail tablet. Cleared lysates were loaded onto a Ni Sepharose™ excel column and washed with buffer A and bound protein was eluted with buffer A supplemented with 300 mM imidazole. The eluted protein was dialyzed against buffer A and digested by His-tagged TEV (1:5 ratio) overnight at 4° C. ZnCl2 was added into the sample at final 15 μM before loading onto a second Ni Sepharose™ excel column. Untagged WRN protein was eluted from the column with buffer A supplemented with 20 mM imidazole, dialyzed overnight into buffer B (50 mM Tris, pH 7.5, 1 mM TCEP, 10% Glycerol) supplemented with 150 mM NaCl and loaded onto a Heparin column. Proteins were eluted with a step gradient of buffer B supplemented with 150 mM, 200 mM, 300 mM and 500 mM NaCl. WRN containing fractions were pooled and concentrated prior to loading on to size exclusion chromatography using a HiLoad 16/600 Superdex™ 200 pg column (GE Healthcare) in buffer C (20 mM HTEPES, pH 7.5, 250 mM NaCl, 0.25 mM TCEP, […]).
A general note: ADP-Glo turns the ADP formed in a reaction into a luminescent signal.

Chain of WRN (BV08), human Werner helicase (Uniprot Q14191, amino acids 517-1235 with L1074F point mutation) (Q14191 other isoform, or with tags, fused parts or gaps L1074F (already in the parent)): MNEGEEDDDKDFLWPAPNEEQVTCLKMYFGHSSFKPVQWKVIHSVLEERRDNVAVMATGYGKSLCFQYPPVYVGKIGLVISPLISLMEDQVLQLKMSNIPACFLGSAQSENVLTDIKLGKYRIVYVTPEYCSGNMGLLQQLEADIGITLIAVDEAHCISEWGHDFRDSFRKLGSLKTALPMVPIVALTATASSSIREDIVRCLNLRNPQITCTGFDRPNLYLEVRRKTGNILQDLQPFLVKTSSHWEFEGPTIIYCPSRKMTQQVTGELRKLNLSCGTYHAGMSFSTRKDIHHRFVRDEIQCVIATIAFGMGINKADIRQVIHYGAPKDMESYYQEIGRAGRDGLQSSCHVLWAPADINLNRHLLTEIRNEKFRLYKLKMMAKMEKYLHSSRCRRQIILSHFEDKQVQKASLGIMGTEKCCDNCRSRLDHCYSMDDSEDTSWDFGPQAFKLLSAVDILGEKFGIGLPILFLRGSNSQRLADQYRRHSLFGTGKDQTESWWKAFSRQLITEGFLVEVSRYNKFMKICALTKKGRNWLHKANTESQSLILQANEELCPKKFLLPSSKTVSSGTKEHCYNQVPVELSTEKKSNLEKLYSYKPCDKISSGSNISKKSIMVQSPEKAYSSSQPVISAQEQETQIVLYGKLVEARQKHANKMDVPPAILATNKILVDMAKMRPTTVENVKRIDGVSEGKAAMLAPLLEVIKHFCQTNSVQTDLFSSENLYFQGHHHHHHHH

Regarding `CCc1c(C23CCN(C(=O)c4ncnc(C)c4O)CC2C3)c(=O)c2nc(N(C)C)cnc2n1CC(=O)Nc1ccc(C(F)(F)F)cc1Cl` (stereo not shown) [I-229, N-[2-chloro-4-(trifluoromethyl)phenyl]-2-[2-(dimethylamino)-6-ethyl-7-[3-(5-hydroxy-6-methylpyrimidine-4-carbonyl)-3-azabicyclo[4.1.0]heptan-6-yl]-8-oxo-5H,8H-pyrido[2,3-b]pyrazin-5-yl]acetamide], the EC50 in assay [1] lay in the range of 500 to 2000 nM. Moreover, the IC50 in assay [2] was 5 to 50 nM.

As for `[2H]C([2H])([2H])N(c1nc2c(=O)c(N3CCN(C(=O)c4ncnc(C)c4O)[C@H]4CC[C@@H]43)c(CC)n(CC(=O)Nc3ccc(C(F)(F)F)cc3F)c2nc1C)C([2H])([2H])[2H]` [I-211], the EC50 in assay [1] is below 500 nM. Besides, the IC50 in assay [2] was 5 to 50 nM.

Turning to `CCc1c(N2CCN(C(=O)c3ncnc(C)c3O)[C@H]3CC[C@@H]32)c(=O)c2cc(N(C)C)cnc2n1CC(=O)Nc1ccc(C(F)(F)F)cc1Cl` [I-124, N-[2-chloro-4-(trifluoromethyl)phenyl]-2-[6-(dimethylamino)-2-ethyl-3-[(1S,6S)-5-(5-hydroxy-6-methylpyrimidine-4-carbonyl)-2,5-diazabicyclo[4.2.0]octan-2-yl]-4-oxo-1,4-dihydro-1,8-naphthyridin-1-yl]acetamide], the EC50 in assay [1] was below 500 nM. In addition, the IC50 in assay [2] was 5 to 50 nM.

On to `CCc1c(N2CCN(C(=O)c3ncnc(C)c3O)CC2)c(=O)c2nc(C3=CCN(C(=O)OC)C3)cnc2n1CC(=O)Nc1ccc(C(F)(F)F)cc1Cl` [I-159, methyl 3-[5-({[2-chloro-4-(trifluoromethyl)phenyl]carbamoyl}methyl)-6-ethyl-7-[4-(5-hydroxy-6-methylpyrimidine-4-carbonyl)piperazin-1-yl]-8-oxo-5H,8H-pyrido[2,3-b]pyrazin-2-yl]-2,5-dihydro-1H-pyrrole-1-carboxylate], for which the EC50 in assay [1] is above 5000 nM. Besides, the IC50 in assay [2] fell in the range of 5 to 50 nM.

As for `CCc1c(N2CCN(C(=O)c3ncnc(C)c3O)C[C@@H]2C)c(=O)c2nc(N3CCC3)cnc2n1CC(=O)Nc1ccc(C(F)(F)F)cc1Cl` [I-187, 2-[2-(azetidin-1-yl)-6-ethyl-7-[(2S)-4-(5-hydroxy-6-methylpyrimidine-4-carbonyl)-2-methylpiperazin-1-yl]-8-oxo-5H,8H-pyrido[2,3-b]pyrazin-5-yl]-N-[2-chloro-4-(trifluoromethyl)phenyl]acetamide], in assay [1], the EC50 was in the range of 500 to 2000 nM. For the same molecule, the IC50 in assay [2] was in the range of 5 to 50 nM.

As for `CCc1c(N2CCN(C(=O)c3ncnc(C)c3O)[C@H]3CC[C@@H]32)c(=O)c2nc(N(C)C)cnc2n1CC(=O)Nc1ccc(S(F)(F)(F)(F)F)cc1Cl` [I-200, N-[2-chloro-4-(pentafluoro-lambda6-sulfanyl)phenyl]-2-[2-(dimethylamino)-6-ethyl-7-[(1S,6S)-5-(5-hydroxy-6-methylpyrimidine-4-carbonyl)-2,5-diazabicyclo[4.2.0]octan-2-yl]-8-oxo-5H,8H-pyrido[2,3-b]pyrazin-5-yl]acetamide], the EC50 in assay [1] is below 500 nM. The IC50 in assay [2] lay in the range of 5 to 50 nM.

Consider `CCc1c(N2CCCN(C(=O)c3ncnc(C)c3O)CC2)c(=O)c2nc(N(C)C)cnc2n1CC(=O)Nc1ccc(C(F)(F)F)cc1Cl` [I-147, N-[2-chloro-4-(trifluoromethyl)phenyl]-2-[2-(dimethylamino)-6-ethyl-7-[4-(5-hydroxy-6-methylpyrimidine-4-carbonyl)-1,4-diazepan-1-yl]-8-oxo-5H,8H-pyrido[2,3-b]pyrazin-5-yl]acetamide], for which the EC50 in assay [1] is above 5000 nM. For the same molecule, the IC50 in assay [2] lay in the range of 5 to 50 nM.

`CCc1c(N2CCN(C(=O)c3ncnc(C)c3O)CC2)c(=O)c2nc(N(C)C)cnc2n1CC(=O)NC12CC(C(F)(F)F)(C1)C2` [I-108, 2-(2-(dimethylamino)-6-ethyl-7-(4-(5-hydroxy-6-methylpyrimidine-4-carbonyl)piperazin-1-yl)-8-oxopyrido[2,3-b]pyrazin-5(8H)-yl)-N-(3-(trifluoromethyl)bicyclo[1.1.1]pentan-1-yl)acetamide]: the EC50 in assay [1] was above 5000 nM. In addition, the IC50 in assay [2] lay within 100 to 500 nM.

On to `CCc1c(N2CCN(C(=O)c3ncnc(C)c3O)CC2)c(=O)c2ncc(Cl)nc2n1CC(=O)Nc1ccc(C(F)(F)F)cc1Cl` [I-43, N-(2-chloro-4-(trifluoromethyl)phenyl)-2-(3-chloro-6-ethyl-7-(4-(5-hydroxy-6-methylpyrimidine-4-carbonyl)piperazin-1-yl)-8-oxopyrido[2,3-b]pyrazin-5(8H)-yl)acetamide], for which the EC50 in assay [1] is above 5000 nM. Besides, the IC50 in assay [2] fell in the range of 100 to 500 nM.

Consider `CCO/C=C/c1cnc2c(n1)c(=O)c(N1CCN(C(=O)c3ncnc(C)c3O)[C@H]3CC[C@@H]31)c(CC)n2CC(=O)Nc1ccc(C(F)(F)F)cc1Cl` (racemic) [I-136, rac-N-[2-chloro-4-(trifluoromethyl)phenyl]-2-{2-[(1E)-2-ethoxyethenyl]-6-ethyl-7-[-5-(5-hydroxy-6-methylpyrimidine-4-carbonyl)-2,5-diazabicyclo[4.2.0]octan-2-yl]-8-oxo-5H,8H-pyrido[2,3-b]pyrazin-5-yl}acetamide], for which, in assay [1], the EC50 was below 500 nM. For the same molecule, the IC50 in assay [2] is 5 to 50 nM.

As for `CCc1c(N2CCN(C(=O)c3ncnc(C)c3O)[C@H]3CC[C@@H]32)c(=O)c2nc(N3CC(C)(O)C3)cnc2n1CC(=O)Nc1ccc(C(F)(F)F)cc1Cl` [I-246, N-[2-chloro-4-(trifluoromethyl)phenyl]-2-[6-ethyl-2-(3-hydroxy-3-methylazetidin-1-yl)-7-[(1S,6S)-5-(5-hydroxy-6-methylpyrimidine-4-carbonyl)-2,5-diazabicyclo[4.2.0]octan-2-yl]-8-oxo-5H,8H-pyrido[2,3-b]pyrazin-5-yl]acetamide], the EC50 in assay [1] lay within 500 to 2000 nM. Besides, in assay [2], the IC50 was 5 to 50 nM.
